This is an account of results in ChEMBL document CHEMBL1151015, “Novel frameworks for trifluoromethyl ketone and phosphonate tsa inhibitors of type II PLA2” (Bioorg Med Chem Lett, 1997).

Each structure is given as a SMILES string.

The species entered for series [1] is Homo sapiens. The series is described as follows: Compound was measured for the inhibitory activity against LTC4 formation in human monocyte at 30 uM concentration. It counts as functional. Details: scale not given: the % may be the effect or the level left.
Series [2] has as its target T1, Cytosolic phospholipase A2 (Homo sapiens) (UniProt P47712).
T1 sequence (whole entry): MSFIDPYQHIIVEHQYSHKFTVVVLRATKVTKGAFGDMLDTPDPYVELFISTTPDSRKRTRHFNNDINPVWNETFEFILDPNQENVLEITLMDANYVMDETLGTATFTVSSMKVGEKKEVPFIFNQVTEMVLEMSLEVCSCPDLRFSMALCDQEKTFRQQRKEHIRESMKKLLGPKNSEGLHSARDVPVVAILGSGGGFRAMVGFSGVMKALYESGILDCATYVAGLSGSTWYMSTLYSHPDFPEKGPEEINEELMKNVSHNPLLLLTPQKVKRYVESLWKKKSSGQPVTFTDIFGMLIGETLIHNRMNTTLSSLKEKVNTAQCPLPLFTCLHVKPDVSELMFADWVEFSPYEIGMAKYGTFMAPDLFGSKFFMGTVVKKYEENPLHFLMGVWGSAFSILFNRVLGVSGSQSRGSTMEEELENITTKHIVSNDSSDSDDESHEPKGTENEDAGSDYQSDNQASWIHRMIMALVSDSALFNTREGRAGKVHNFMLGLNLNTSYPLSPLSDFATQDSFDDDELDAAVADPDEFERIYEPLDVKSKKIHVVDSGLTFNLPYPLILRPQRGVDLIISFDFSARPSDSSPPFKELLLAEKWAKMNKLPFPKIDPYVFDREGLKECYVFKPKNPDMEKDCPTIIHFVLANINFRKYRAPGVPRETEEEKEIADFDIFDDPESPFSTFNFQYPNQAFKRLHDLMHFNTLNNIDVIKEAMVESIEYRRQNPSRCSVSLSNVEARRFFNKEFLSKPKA
The series is described as follows: Compound was measured for the inhibitory activity against Cytosolic phospholipase A2 (c-PLA2) at 100 uM concentration. Details: scale not given: the % may be the effect or the level left.

The target in series [3] is T1, Cytosolic phospholipase A2 (Homo sapiens). The series is described as follows: Compound was measured for the inhibitory activity against Cytosolic phospholipase A 2 (c-PLA2) at 30 uM concentration. On the set-up: scale not given: the % may be the effect or the level left.
Series [4] is filed under the species Homo sapiens. The series is described as follows: Compound was measured for the inhibitory activity against LTC4 formation in human monocyte; not cell permeable. It counts as functional.
Series [5] can be described thus: Dissociation constant of compound. It counts as physicochemical.
Series [6] is described as follows: pH dependence of compound; weak. It counts as ADME.
The species entered for series [7] is Homo sapiens. Put plainly: Compound was measured for the inhibitory activity against LTC4 formation in human monocyte; not determined; not cell permeable. It counts as functional.
Series [8] is filed under the species Homo sapiens. The series is described as follows: Compound was measured for the inhibitory activity against LTB4 formation in human whole blood at 30 uM concentration. It counts as functional. Details: scale not given: the % may be the effect or the level left.

With `O=C(O)c1ccc2cccc(C(=O)C(F)(F)F)c2c1`, the Activity was -76% in the series filed under Homo sapiens [1] and -36% in series [2].
Turning to `CCCCCCCOc1ccc(C(=O)O)cc1CC(=O)C(F)(F)F`, the Activity was -40% in series [3] and “not cell permeable” in the series filed under Homo sapiens [4]. The same compound returned a pKa in series [5] of 7.1.
Turning to `CCCCCCCCCCCCCCCCCCOP(=O)(O)c1cccc2ccc(C(=O)O)cc12`, the pH dependence entry in series [6] is on record as “weak”. Besides, the Activity entry in the series listed under Homo sapiens [7] was “not cell permeable”.
`CCCCCCCCCCOP(=O)(O)c1cc(OCc2ccccc2)ccc1/C=C/C(=O)O`: the results for the Activity in the series listed under Homo sapiens [8] and in the series listed under Homo sapiens [1] were -90% and -44%, respectively. The pKa in series [5] stood at 7.1.
